Experimental data as given in publication PMC12567398, “New Assay Systems to Characterize the Broad-Spectrum Antiherpesviral and Non-Herpesviral Activity of Cyclin-Dependent Kinase (CDK) 8 Inhibitors” (Pharmaceuticals, 2025).
Where two headings read alike, the source gives them in different places.

Key:
in vitro [1] = settings: human
EHV-1-GFP = EHV-1-GFP antiviral assay, GFP fluorometry; format: cell-based, equine herpesvirus 1
MHV-68-Luc = MHV-68-Luc luciferase reporter assay; format: cell-based, murine herpesvirus 68; settings: Murine herpesvirus, MHV-68-Luc
in vitro [2] = settings: African green monkey
in vitro [3] = settings: African green monkey; remark: listed apart in the source
HHV-6A-GFP = assay: HHV-6A plaque reduction assay in HFFs; settings: Human betaherpesvirus 6A, read-out: Antiviral mean EC50 based on plaque assay measurements
in vitro [4] = settings: mouse
[5] = system: Epstein–Barr virus P3HR-1; assay: EBV lytic assay in TPA-induced P3HR-1 cells, qPCR; format: cell-based; settings: human gammaherpesvirus 4, P3HR-1, 240 h, read-out: Antiviral mean EC50 based on qPCR measurements
[6] = Neutral Red uptake cell viability assay, P3HR-1; settings: human

Nc1nc(O)c2ncn(COC(CO)CO)c2n1 [GCV, ganciclovir]
CC50 (in vitro [1]; CC50): > 50000 nM
CC50 (in vitro [1]; mean CC50): > 100000 nM
EC50 (EHV-1-GFP): 1300 ± 300 nM
EC50 (EHV-1-GFP; COS-7): 200 ± 100 nM
EC50 (EHV-1-GFP; Equus caballus, Vero): 40 ± 50 nM
EC50 (MHV-68-Luc; HFF): > 50000 nM
EC50 (MHV-68-Luc; MEF): 9400 ± 6300 nM
EC50 (MHV-68-Luc; Vero): 900 ± 700 nM
CC50 at 4 d (in vitro [2]): > 100000 nM
CC50 at 7 d (in vitro [3]): > 100000 nM
EC50 (HHV-6A-GFP): 2500 ± 600 nM
CC50 at 7 d (in vitro [4]): > 100000 nM

CC(C)OC(=O)[C@H](C)N[P@](=O)(CO[C@H](C)Cn1cnc2c(N)ncnc21)Oc1ccccc1 [TAF, tenofovir alafenamide]
EC50 [5]: 1800 nM
CC50 at 10 d [6]: > 100000 nM
